Data from BindingDB's records for doi:10.1021/bi1006354 (Beactica, 2010).
Where “and” joins values, the source holds several entries; their conditions need not be identical. Equal values may be shown once.

Biological target: Acetylcholine-binding protein (Lymnaea stagnalis, UniProt P58154)
Assay: Interaction Assay
Conditions: pH 7.4; 25 °C
From the text: Interaction assay using AChBP.

Sequence of Acetylcholine-binding protein (P58154 whole entry): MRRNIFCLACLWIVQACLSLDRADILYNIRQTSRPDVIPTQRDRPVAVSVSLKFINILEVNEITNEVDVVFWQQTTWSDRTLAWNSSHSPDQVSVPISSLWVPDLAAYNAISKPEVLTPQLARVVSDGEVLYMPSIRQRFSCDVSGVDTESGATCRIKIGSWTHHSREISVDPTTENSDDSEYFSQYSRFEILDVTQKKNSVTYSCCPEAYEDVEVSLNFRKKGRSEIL

SMILES: N[C@@H]1C2CCN(CC2)C1Cc1cccnc1 (stereo not given in full) [Quinuclidine analogue, 2]
- Kd: 345 nM

SMILES: CC(=O)OCC[N+](C)(C)C [2-acetoxyethyl(trimethyl)ammonium;perchlorate]
- Kd: 458 nM and 3850 nM

SMILES: O=C(N[C@@H]1C2CCN(CC2)C1Cc1cccnc1)c1ccccc1 (stereo not given in full) [Quinuclidine analogue, 3]
- Kd: 141 nM

SMILES: CN(C)CCc1cccnc1 [Quinuclidine analogue, 1]
- Kd: 4250 nM

SMILES: O=C(N[C@@H]1C2CCN(CC2)C1Cc1cccnc1)c1cc2ccccc2o1 (stereo not given in full) [Quinuclidine analogue, 5]
- Kd: 12.8 nM
